According to US7402548B2, “Benzoxazole compounds, process for producing the same and herbicides” (Kyoyu Agri Co., Ltd., priority 2000, dated 2008):

Legend:
barnyard grass [1] = experiment: Herbicidal test for paddy field; format: in vivo, Eschinochloa crusgalli; conditions: 500 g/ha, dropwise addition to paddy water at 1.5 leaf stage of barnyard grass; glass house 25° C., 3 weeks; rank 0-5 vs non-treated district
Procedure, shortened: (§1)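 Wettable-powder formulations in water with 0.05% surfactant were dripped onto flooded (3 cm) Ube alluvial-soil pots at 500 g/ha, applied at barnyard grass 1.5-leaf stage. Plants were kept in a glasshouse at 25° C. for 3 weeks. Damage was scored 0 (normal) to 5 (all killed) versus untreated plants.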

bulrush = experiment: Herbicidal test for paddy field; format: in vivo, Scrips juncoides; conditions: 500 g/ha, dropwise addition to paddy water at 1.5 leaf stage of barnyard grass; glass house 25° C., 3 weeks; rank 0-5 vs non-treated district
Procedure, shortened: as §1

Cyperus serotinus Rottb. = experiment: Herbicidal test for paddy field; format: in vivo; conditions: 500 g/ha, dropwise addition to paddy water at 1.5 leaf stage of barnyard grass; glass house 25° C., 3 weeks; rank 0-5 vs non-treated district
Procedure, shortened: as §1

arrowhead = experiment: Herbicidal test for paddy field; format: in vivo, Sagittaria pygmaea; conditions: 500 g/ha, dropwise addition to paddy water at 1.5 leaf stage of barnyard grass; glass house 25° C., 3 weeks; rank 0-5 vs non-treated district
Procedure, shortened: as §1

corn [2] = experiment: Soil treatment test for upland field; format: in vivo; parameters: key: 0 = normal development, 5 = all killed; conditions: 500 g/ha, 3 weeks, glass house 25° C.
Procedure, shortened: (§2)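 Using a pre-emergence soil application at 500 g/ha, treated pots were held 3 weeks in a glass house averaging 25° C. Injury was graded on a 0–5 scale against non-treated pots; "-" marks entries not investigated.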

solgum [3] = experiment: Soil treatment test for upland field; format: in vivo; parameters: key: 0 = normal development, 5 = all killed; conditions: 500 g/ha, 3 weeks, glass house 25° C.
Procedure, shortened: as §2

sugar beat [4] = experiment: Soil treatment test for upland field; format: in vivo; parameters: key: 0 = normal development, 5 = all killed; conditions: 500 g/ha, 3 weeks, glass house 25° C.
Procedure, shortened: as §2

wheat [5] = experiment: Soil treatment test for upland field; format: in vivo; parameters: key: 0 = normal development, 5 = all killed; conditions: 500 g/ha, 3 weeks, glass house 25° C.
Procedure, shortened: as §2

[6] = system: common Cocklebur (Xanthium strumarium); experiment: Soil treatment test for upland field; format: in vivo; conditions: 500 g/ha, 3 weeks, glass house 25° C.
Protocol: (§3) The herbicidal effects are evaluated according to the following 6 ranks as compared with non-treated district. (0: normal development, 1: Less damaged, 2: Slightly damaged, 3: Moderately damaged, 4: Severely damaged, 5: All killed). Incidentally, “-” in the column means not investigated.
(§4) Wagner pots, each having an area of 1/5000 are, were packed with Ube soil (alluvial soil), and then each seed of corn, soybean, cotton, wheat, solgum, sugar beat, Large crabgrass, barnyard grass, green foxtail, blackgrass, annual bluegrass, common lambsquarters, livid amaranth, velvetleaf, morning glory, common Cocklebur (Xanthium strumarium) and sicklepod (Cassia obtusifolia) were planted and covered with soil.
(§5) Each wettable powder of the desired compounds (I) shown in Tables 1 to 21, 24, 25, 28 and 29 prepared in accordance with Example 2 was diluted with water containing a surfactant (0.05%) and uniformly sprayed on the surface of each soil so that an effective concentration of the compound (I) in each herbicide became 500 g/ha.
(§6) These plants were controlled in a glass house at an average temperature of 25° C. for 3 weeks, and then herbicidal effects thereof were investigated.
(§7) The herbicidal effects were evaluated according to the evaluation method described in the above (1).

[7] = system: sicklepod (Cassia obtusifolia); experiment: Soil treatment test for upland field; format: in vivo; conditions: 500 g/ha, 3 weeks, glass house 25° C.
Protocol: as §3, §4, §5, §6, §7

Large crabgrass [8] = experiment: Soil treatment test for upland field; format: in vivo, Digitaria adscendens; parameters: key: 0 = normal development, 5 = all killed; conditions: 500 g/ha, 3 weeks, glass house 25° C.
Procedure, shortened: as §2

barnyard grass [9] = experiment: Soil treatment test for upland field; format: in vivo, Eschinochloa crusgalli; parameters: key: 0 = normal development, 5 = all killed; conditions: 500 g/ha, 3 weeks, glass house 25° C.
Procedure, shortened: as §2

green foxtail [10] = experiment: Soil treatment test for upland field; format: in vivo, Setaria viridis; parameters: key: 0 = normal development, 5 = all killed; conditions: 500 g/ha, 3 weeks, glass house 25° C.
Procedure, shortened: as §2

blackgrass [11] = experiment: Soil treatment test for upland field; format: in vivo, Alopecurus aegualis; parameters: key: 0 = normal development, 5 = all killed; conditions: 500 g/ha, 3 weeks, glass house 25° C.
Procedure, shortened: as §2

annual bluegrass [12] = experiment: Soil treatment test for upland field; format: in vivo, Poa annua; parameters: key: 0 = normal development, 5 = all killed; conditions: 500 g/ha, 3 weeks, glass house 25° C.
Procedure, shortened: as §2

common lambsquarters [13] = experiment: Soil treatment test for upland field; format: in vivo, Chenopodium album; parameters: key: 0 = normal development, 5 = all killed; conditions: 500 g/ha, 3 weeks, glass house 25° C.
Procedure, shortened: as §2

livid amaranth [14] = experiment: Soil treatment test for upland field; format: in vivo, Amaranthus lividus; parameters: key: 0 = normal development, 5 = all killed; conditions: 500 g/ha, 3 weeks, glass house 25° C.
Procedure, shortened: as §2

velvetleaf [15] = experiment: Soil treatment test for upland field; format: in vivo, Abutilon theophrasti; parameters: key: 0 = normal development, 5 = all killed; conditions: 500 g/ha, 3 weeks, glass house 25° C.
Procedure, shortened: as §2

morning glory [16] = experiment: Soil treatment test for upland field; format: in vivo, Ipomoea spps.; parameters: key: 0 = normal development, 5 = all killed; conditions: 500 g/ha, 3 weeks, glass house 25° C.
Procedure, shortened: as §2

corn [17] = experiment: Foliar spread test for upland field; format: in vivo; parameters: key: 0 = normal development, 5 = all killed (6 ranks vs. untreated); conditions: foliar spray, 500 ppm, 3 weeks, glass house 25° C.
Procedure, shortened: (§8)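 Seeds were sown in volcanic ash soil in Wagner pots and grown about 2 weeks in a glass house at an average 25° C. Wettable-powder formulations diluted to 500 ppm in water with 0.5% surfactant were sprayed uniformly over the plants. After 3 further weeks at 25° C, damage was scored 0 (normal) to 5 (all killed) against untreated plants.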

cotton [18] = experiment: Foliar spread test for upland field; format: in vivo; parameters: key: 0 = normal development, 5 = all killed (6 ranks vs. untreated); conditions: foliar spray, 500 ppm, 3 weeks, glass house 25° C.
Procedure, shortened: as §8

solgum [19] = experiment: Foliar spread test for upland field; format: in vivo; parameters: key: 0 = normal development, 5 = all killed (6 ranks vs. untreated); conditions: foliar spray, 500 ppm, 3 weeks, glass house 25° C.
Procedure, shortened: as §8

soybean [20] = experiment: Foliar spread test for upland field; format: in vivo; parameters: key: 0 = normal development, 5 = all killed (6 ranks vs. untreated); conditions: foliar spray, 500 ppm, 3 weeks, glass house 25° C.
Procedure, shortened: as §8

sugar beat [21] = experiment: Foliar spread test for upland field; format: in vivo; parameters: key: 0 = normal development, 5 = all killed (6 ranks vs. untreated); conditions: foliar spray, 500 ppm, 3 weeks, glass house 25° C.
Procedure, shortened: as §8

wheat [22] = experiment: Foliar spread test for upland field; format: in vivo; parameters: key: 0 = normal development, 5 = all killed (6 ranks vs. untreated); conditions: foliar spray, 500 ppm, 3 weeks, glass house 25° C.
Procedure, shortened: as §8

Large crabgrass [23] = experiment: Foliar spread test for upland field; format: in vivo, Digitaria adscendens; parameters: key: 0 = normal development, 5 = all killed (6 ranks vs. untreated); conditions: foliar spray, 500 ppm, 3 weeks, glass house 25° C.
Procedure, shortened: as §8

barnyardgrjass = experiment: Foliar spread test for upland field; format: in vivo, Eschinochloa crusgalli; parameters: key: 0 = normal development, 5 = all killed (6 ranks vs. untreated); conditions: foliar spray, 500 ppm, 3 weeks, glass house 25° C.
Procedure, shortened: as §8

green foxtail [24] = experiment: Foliar spread test for upland field; format: in vivo, Setaria viridis; parameters: key: 0 = normal development, 5 = all killed (6 ranks vs. untreated); conditions: foliar spray, 500 ppm, 3 weeks, glass house 25° C.
Procedure, shortened: as §8

blackgrass [25] = experiment: Foliar spread test for upland field; format: in vivo, Alopecurus aegualis; parameters: key: 0 = normal development, 5 = all killed (6 ranks vs. untreated); conditions: foliar spray, 500 ppm, 3 weeks, glass house 25° C.
Procedure, shortened: as §8

annual bluegrass [26] = experiment: Foliar spread test for upland field; format: in vivo, Poa annua; parameters: key: 0 = normal development, 5 = all killed (6 ranks vs. untreated); conditions: foliar spray, 500 ppm, 3 weeks, glass house 25° C.
Procedure, shortened: as §8

common lambsquarters [27] = experiment: Foliar spread test for upland field; format: in vivo, Chenopodium album; parameters: key: 0 = normal development, 5 = all killed (6 ranks vs. untreated); conditions: foliar spray, 500 ppm, 3 weeks, glass house 25° C.
Procedure, shortened: as §8

livid amaranth [28] = experiment: Foliar spread test for upland field; format: in vivo, Amaranthus lividus; parameters: key: 0 = normal development, 5 = all killed (6 ranks vs. untreated); conditions: foliar spray, 500 ppm, 3 weeks, glass house 25° C.
Procedure, shortened: as §8

velvetleaf [29] = experiment: Foliar spread test for upland field; format: in vivo, Abutilon theophrasti; parameters: key: 0 = normal development, 5 = all killed (6 ranks vs. untreated); conditions: foliar spray, 500 ppm, 3 weeks, glass house 25° C.
Procedure, shortened: as §8

morning glory [30] = experiment: Foliar spread test for upland field; format: in vivo, Ipomoea spps.; parameters: key: 0 = normal development, 5 = all killed (6 ranks vs. untreated); conditions: foliar spray, 500 ppm, 3 weeks, glass house 25° C.
Procedure, shortened: as §8

Cassia obtusifolia = experiment: Foliar spread test for upland field; format: in vivo; parameters: key: 0 = normal development, 5 = all killed; conditions: foliar spray, 500 ppm, 3 weeks, glass house 25° C.
Procedure, shortened: as §8

Xanthium pensylvanicum = experiment: Foliar spread test for upland field; format: in vivo; parameters: key: 0 = normal development, 5 = all killed; conditions: foliar spray, 500 ppm, 3 weeks, glass house 25° C.
Procedure, shortened: as §8

soybean [31] = experiment: Soil treatment test for upland field; format: in vivo; parameters: key: 0 = normal development, 5 = all killed; conditions: 500 g/ha, 3 weeks, glass house 25° C.
Procedure, shortened: as §2

cotton [32] = experiment: Soil treatment test for upland field; format: in vivo; conditions: 500 g/ha, 3 weeks, glass house 25° C.
Protocol: as §3, §4, §5, §6, §7

Compound | Effects Corn (corn [2]) | Effects Solgum (solgum [3]) | Effects Sugar beat (sugar beat [4]) | Effects Wheat (wheat [5]) | Effects Large crabgrass (Large crabgrass [8]) | Effects Barnyardgrass (barnyard grass [9]) | Effects Green foxtail (green foxtail [10]) | Effects Blackgrass (blackgrass [11]) | Effects Annual bluegrass (annual bluegrass [12]) | Effects Common lambsquarters (common lambsquarters [13]) | Effects Livid amaranth (livid amaranth [14]) | Effects Velvetleaf (velvetleaf [15]) | Effects Morning glory (morning glory [16]) | Effects Corn (corn [17]) | Effects Sotton (cotton [18]) | Effects Solgum (solgum [19]) | Effects Soybean (soybean [20]) | Effects Sugar beat (sugar beat [21]) | Effects Wheat (wheat [22]) | Effects Large crabgrass (Large crabgrass [23]) | other results
FC(F)(F)c1cccc(Oc2cccc(-c3nc4ccccc4o3)n2)c1 [I-a-1] | 0 | 2 | 5 | 1 | 5 | 4 | 5 | 4 | 5 | 5 | 5 | 3 | 4 | 2 | 4 | 2 | 5 | 4 | 2 | 4 | Effects Barnyardgrass (barnyard grass [1]): 4; Effects Bulrush (bulrush): 2; Effects Cyperus serotinus Rottb. (Cyperus serotinus Rottb.): 2; Effects Arrowhead (arrowhead): 1; Effects Common Cocklebur [6]: 5; Effects Sicklepod [7]: 3; Effects Barnyardgrass (barnyardgrjass): 3; Effects Green foxtail (green foxtail [24]): 5; Effects Blackgrass (blackgrass [25]): 2; Effects Annual bluegrass (annual bluegrass [26]): 4; Effects Common lambsquarters (common lambsquarters [27]): 5; Effects Livid amaranth (livid amaranth [28]): 5; Effects Velvetleaf (velvetleaf [29]): 4; Effects Morning glory (morning glory [30]): 5; Effects Sicklepod (Cassia obtusifolia): 5; Effects Common Cocklebur (Xanthium pensylvanicum): 4
CC/C(=C\c1ccc(F)c(C(F)(F)F)c1)c1nc2cc(Cl)ccc2o1 [I-c-54, (E)-2-(5-chlorobenzoxazol-2-yl)-1-(4-fluoro-3-trifluoromethylphenyl)butene] | 1 | 2 | 5 | 1 | 5 | 5 | 5 | 5 | 5 | 5 | 5 | 5 | 5 | 3 | 3 | 3 | 4 | 5 | 2 | 4 | Effects Barnyardgrass (barnyard grass [1]): 5; Effects Bulrush (bulrush): 3; Effects Cyperus serotinus Rottb. (Cyperus serotinus Rottb.): 3; Effects Soybean (soybean [31]): 5; Effects Sotton (cotton [32]): 3; Effects Barnyardgrass (barnyardgrjass): 2; Effects Green foxtail (green foxtail [24]): 4; Effects Blackgrass (blackgrass [25]): 4; Effects Annual bluegrass (annual bluegrass [26]): 4; Effects Common lambsquarters (common lambsquarters [27]): 5; Effects Livid amaranth (livid amaranth [28]): 5; Effects Velvetleaf (velvetleaf [29]): 3; Effects Morning glory (morning glory [30]): 3
CCC(O)(Cc1ccc(F)c(C(F)(F)F)c1)c1nc2cc(Cl)ccc2o1 (stereo not drawn) [I-d-11, 1-(5-chlorobenzoxazol-2-yl)-1-(4-fluoro-3-trifluoromethylbenzyl)propanol] | – | – | – | – | – | – | – | – | – | – | – | – | – | – | – | – | – | – | – | – | melting point: 90 to 93 °C
CCC(F)(Cc1ccc(F)c(C(F)(F)F)c1)c1nc2cc(Cl)ccc2o1 (stereo not drawn) [I-d-13, 1-(5-chlorobenzoxazol-2-yl)-1-(4-fluoro-3-trifluoromethylbenzyl)propyl fluoride] | 0 | 0 | 5 | 0 | 5 | 2 | 5 | 4 | 5 | 5 | 5 | 5 | 1 | 2 | 5 | 1 | 5 | 5 | 1 | 2 | Effects Sotton (cotton [32]): 0; Effects Barnyardgrass (barnyardgrjass): 1; Effects Green foxtail (green foxtail [24]): 2; Effects Blackgrass (blackgrass [25]): 1; Effects Annual bluegrass (annual bluegrass [26]): 1; Effects Common lambsquarters (common lambsquarters [27]): 5; Effects Livid amaranth (livid amaranth [28]): 5; Effects Velvetleaf (velvetleaf [29]): 4; Effects Morning glory (morning glory [30]): 5
